Reference: patent US5871779A, “Treatment of arthropathies with vanadate compounds or analogues thereof” (Mount Sinai Hospital Corporation, priority 1996, dated 1999)
“Also recorded” adds a separate entry of the source.

Columns and labels:
[1] = system: tumor growth; test: tumor growth in vivo, orthovanadate and N-acetylcysteine (Example 7); parameters: species or system mice; settings: combination with orthovanadate
Experimental: Since N-acetylcysteine is converted to glutathione in cells, higher levels of glutathione may not only reduce orthovanadate induced toxicity but may also reduce tumor formation.
Twenty mice were injected subcutaneously with 2×10^5 cells on Day 1. At day 4, the mice were divided into four groups of five mice. Group one (control) received subcutaneous injections of 50 μl of water. Group two received daily intraperitoneal injections of 50 μl of 250 mM N-acetylcysteine. Group three received daily subcutaneous injections of 50 μl of 10 mg/ml of orthovanadate. Group four received daily intraperitoneal injections of 50 μl of […] N-acetylcysteine and 20 minutes later received 50 μl of subcutaneous injection of 50 μl of 10 mg/ml of orthovanadate. On day 10 the treatment was stopped. The animals were sacrificed on Day 13 and analyzed for tumor growth.

[2] = system: collagenase; test: collagenase mRNA expression in chondrocytes (Northern blot); assay type: cell-based, bovine; settings: in the presence of IL 1; N-acetylcysteine 20 mM for 20 min
Excerpt: (§1) The cytokine interleukin 1 (IL 1) has been used to identify the intermediate second messengers which regulate the expression of fos and jun.
Although IL 1 stimulated superoxide production, it was not known whether IL 1 induced fos and jun expression was dependent on the production of superoxides. In order to elucidate this possibility, the effect of DPI on fos and jun mRNA levels induced by IL 1 was investigated. RNA from chondrocytes treated with IL 1 in the presence and absence of DPI were analyzed by Northern blot analysis using either fos or collagenase cDNA probes. […] Similar data has been obtained for IL 1 induced jun expression. Furthermore, inhibition of fos and jun expression by DPI was sufficient to suppress IL 1 induced and constitutive collagenase expression.
Cells were also incubated as described above with 20 mM N-acetylcysteine for 20 min. and then incubated with IL 1 for an additional 1 or 12 hours. The RNA was extracted and examined by Northern blot analysis using cDNA probes for c-fos and collagenase. N-acetylcysteine which is converted to GSH intracellularly was also found to reduce the levels of fos and collagenase expression in response to IL 1 (FIG. 5). Presumably the higher intracellular levels of GSH reduced H2 O2 and superoxide levels and suppressed the induction of fos and collagenase expression.

[3] = system: collagen induced arthritis; test: collagen induced arthritis, clinical arthritis score; assay type: in vivo, rats; settings: NAC 100 mg/kg/day s.c.; listed as NAC
Experimental: Syngeneic 8 week old female Louvain (LOU) rats were fed with standard lab chow and housed in the vivarium at the University of California, Los Angeles. […] E. et al., J. Exp. Med., 146: 857-868, 1977). […] Rats with definite arthritis on Day 10 post immunization were randomized into two groups. Control rats (n=8) received only NAC at a dose of 100 mg/kg/day s.c. NAC was prepared as a 3% aqueous solution. […] Clinical arthritis severity of each limb was scored daily based on an objective integer scale of 0-4 (Trentham, D. E. et al., J. Exp. Med., 146: 857-868, 1977). A score of 0 indicated an unaffected limb, while a score of 4 represented fulminant erythema and edema involving distal digits. The arthritic index of a rat is defined as the sum of its four limb scores. Since CIA typically involves only the hind limbs, an arthritic index of 6 to 8 is considered severe arthritis.

[4] = system: c-fos; test: TNFα and bFGF induced c-fos mRNA in chondrocytes (Northern blot); assay type: cell-based, bovine; settings: 30 mM, 2 hours preincubation
Experimental: Chondrocyte cultures were stimulated with H2 O2 (100 μM) at different time points as indicated. […] Chondrocyte cultures were preincubated with NAC (30 mM) or Asc (100 μM) for 2 hours before the addition of bFGF (10 ng/ml) or TNFα (30 ng/ml) for 30 minutes. Both human recombinant TNFα and bFGF were dissolved in phosphate buffered saline with 0.1% bovine serum albumin. NAC and Asc were first dissolved in Ham's F12 medium containing 5% (v/v) fetal bovine serum, then neutralized with sodium hydroxide. Total RNA from bovine articular chondrocytes was isolated and the c-fos mRNA levels were determined by Northern blot analysis as described herein. The blots were subsequently stripped of DNA and re-probed with ^32 p-labelled rat β tubulin cDNA.
Chondrocyte cultures were pretreated with DPI (2 μM) for 30 minutes before the addition of TNFα (30 ng/ml) or bFGF (10 ng/ml) for 30 minutes. Measurements of c-fos and tubulin mRNA levels were as described in Example 11.

[5] = system: collagenase; test: collagenase production by chondrocytes (ELISA); assay type: cell-based, bovine; settings: summary statement
Experimental: The effect of orthovanadate and N-acetylcysteine on fos, jun and collagenase expression were examined. Bovine articular chondrocytes were isolated and plated as previously described (Kandel R. A. et al. Biochim. Biophys. Acta. 1053, 130-134, 1990). In order to determine the effect of orthovanadate on IL 1 and PMA (phorbol ester) induced responses, chondrocytes were incubated with orthovanadate (100 μM) for 2 hours before stimulation with IL 1 (10 ng/ml) or PMA ([…]). Collagenase production was determined by incubating chondrocytes for 24 hours with IL 1 or PMA and the cell conditioned medium was assayed for collagenase activity using an ELISA procedure as described previously (Kandel et al. supra). PLA2 activity was measured by incorporating ^3 H-arachidonic acid (^3 H-AA) into the cells and then incubating the cells with medium containing 1 mg/ml BSA, either alone or in the presence of IL 1 or PMA, for 10 min. as previously described (Conquer, J. A. […], Biochim. Biophys. Acta. 1134, 1-6). The amount of ^3 H-AA liberated into the supernatant was determined. To measure PGE2 production, chondrocytes were incubated for 6 hours in Ham's F12 medium, either alone or with IL 1 or PMA. The supernatant was analyzed by RIA using an antibody specific for PGE2 (Dr. S. A. Jones, Mount Sinai Hospital, Toronto, Canada). In order to examine the expression of c-fos and c-jun, chondrocytes were incubated for 1 hour in the presence of IL-1, PMA or AA (3 μM). Chondrocytes were washed in PBS and the total RNA extracted as previously described (Cruz. et al, 1991, Biochem. J. 277, 327-330). RNA samples were run on formaldehyde agarose gels and transferred to nylon membrane for northern analysis using cDNA probes for c-fos and c-jun.

[6] = system: fos; test: fos / c-fos mRNA expression in chondrocytes (Northern blot); assay type: cell-based, bovine; settings: in the presence of IL 1; N-acetylcysteine 20 mM for 20 min
Experimental: as §1
In order to elucidate this possibility, the effect of DPI on fos and jun mRNA levels induced by IL 1 was investigated. RNA from chondrocytes treated with IL 1 in the presence and absence of DPI were analyzed by Northern blot analysis using either fos or collagenase cDNA probes.
Since superoxides are rapidly converted to hydrogen peroxide in the cell by superoxide dismutase, whether hydrogen peroxide could mimic the effect of IL 1 in the induction of fos expression was investigated. RNA was extracted from chondrocytes (Kandel et al. supra) treated with H2 O2 for 30, 60 and 90 minutes and examined by Northern blot analysis using a fos cDNA probe.
Bovine articular chondrocytes were isolated and plated as previously described (Kandel R. A. et al. Biochim. Biophys. Acta. 1053, 130-134, 1990). […] The amount of ^3 H-AA liberated into the supernatant was determined. To measure PGE2 production, chondrocytes were incubated for 6 hours in Ham's F12 medium, either alone or with IL 1 or PMA. […] In order to examine the expression of c-fos and c-jun, chondrocytes were incubated for 1 hour in the presence of IL-1, PMA or AA (3 μM). Chondrocytes were washed in PBS and the total RNA extracted as previously described (Cruz. et al, 1991, Biochem. J. 277, 327-330). RNA samples were run on formaldehyde agarose gels and transferred to nylon membrane for northern analysis using cDNA probes for c-fos and c-jun.
The RNA was extracted and examined by Northern blot analysis using cDNA probes for c-fos and collagenase.

## CC(=O)N[C@@H](CS)C(=O)O [N-acetylcysteine]
[1]
  toxic effects observed with orthovanadate alone: reduce the slight toxic effects
[2]
  IL 1 induction of collagenase: reduce
[3]
  arthritis development / clinical severity, NAC alone: developed severe arthritis; also recorded: no appreciable effect
[4]
  inhibition of TNFα and bFGF induced c-fos mRNA levels: inhibit
[5]
  production of metalloproteases, such as collagenase: inhibit
[6]
  IL 1 induction of fos: reduce
